Laboratory results as given in paper PMC13237374 (Communications Chemistry, 2026).

Columns and labels:
Format in all cases: physicochemical
[1] = Unseeded ThT aggregation kinetics of medin monomer; details: for Primary nucleation order nc, fit result: unseeded assay fitted individually
Method: After removing outliers manually, the resultant data from kinetic assays were normalized and analyzed using the online platform AmyloFit 2.0[46] made for global aggregation kinetic data-fitting. […] Half-times of unseeded aggregation assays were calculated in the AmyloFit 2.0 platform. For comparison of aggregation half-times of unseeded and low-seeded reactions, data were normalized and fitted using GraphPad Prism 2.0 with2 y=ymin+ymax−ymin/1+t1/2/t^c where y is the normalized ThT fluorescence and c is a constant. All data were fitted with the corresponding model using 50 basin hops to ensure convergence, and the fit with the least MSE was considered the best fit. Two models were used with the consideration of the presence or absence of seeds: secondary nucleation dominated[11] and fragmentation dominated mechanisms[45]. […] The average fibril length for pre-formed aggregate seeds was assumed to be 10,000 monomers[46].

[2] = Salt (NaCl) titration of medin ThT aggregation kinetics; details: [Medin] 75 nM, N = 1, n = 5
Method: (§1) All assays were carried out at 37 °C in quiescent conditions at 100 µL sample volume per well in 96-well half-area non-binding plates (Corning 3881), with an aluminum film coating to minimize evaporation. […] ThT fluorescence emission at 480 nm, when excited at 440 nm, was monitored using a FLUOstar Omega plate-reader (BMG Labtech GmbH, Germany) using a cycle time of 180 s with 40 flashes per reading and 0.2 s settling time per cycle. The unseeded reactions were repeated thrice using three different batches of protein.
For salt titration experiments, 20 mM NaPi 1 M NaCl 0.2 mM EDTA pH 7.4 was diluted to the final reaction mixtures at final NaCl concentrations of 0, 40, 150, and 500 mM before incubation in replicate wells of a non-binding plate and monitoring of aggregation kinetics as described above.
(§2) After removing outliers manually, the resultant data from kinetic assays were normalized and analyzed using the online platform AmyloFit 2.0[46] made for global aggregation kinetic data-fitting. All data representations have been produced in GraphPad Prism 2.0. Half-times of unseeded aggregation assays were calculated in the AmyloFit 2.0 platform. For comparison of aggregation half-times of unseeded and low-seeded reactions, data were normalized and fitted using GraphPad Prism 2.0 with2 y=ymin+ymax−ymin/1+t1/2/t^c where y is the normalized ThT fluorescence and c is a constant. All data were fitted with the corresponding model using 50 basin hops to ensure convergence, and the fit with the least MSE was considered the best fit. Two models were used with the consideration of the presence or absence of seeds: secondary nucleation dominated[11] and fragmentation dominated mechanisms. […] The average fibril length for pre-formed aggregate seeds was assumed to be 10,000 monomers.

[3] = Critical concentration of medin aggregation from ThT amplitude; details: half-maximal point of sigmoidal fit of ThT amplitude at 0–40 nM monomer; 20 µM ThT, pH 7.4, 37 °C, quiescent
[4] = Global kinetic fitting (AmyloFit 2.0) of unseeded, low-seeded and high-seeded medin ThT data
Method: as §2

[5] = Dynamic light scattering (DLS) of medin
Method: Samples were withdrawn at different time intervals, and the particle size distribution was monitored at 20 °C in a Malvern Zetasizer Nano instrument (Malvern Instruments Limited, United Kingdom) at 70 µL volume (N = 3, n = 3). Two outliers were removed manually before data analysis.

[6] = High-seeded (20–50% seed:total protein) ThT aggregation assay of medin; details: for Elongation rate constant k+, fit result: high-seeded assay fitted individually
Method: as §1
Amyloid aggregation was monitored using 20 µM ThT in replicate wells. The overnight-grown fibrils were sonicated for 15 s at 50% duty cycle and 10% power using a microtip sonicator (Bandelin Sonopuls, Germany) to produce seeds for subsequent seeded aggregation assays.
as §2

[7] = Low-seeded (1% seed:monomer) ThT aggregation assay of medin
Method: After removing outliers manually, the resultant data from kinetic assays were normalized and analyzed using the online platform AmyloFit 2.0[46] made for global aggregation kinetic data-fitting. […] Half-times of unseeded aggregation assays were calculated in the AmyloFit 2.0 platform. For comparison of aggregation half-times of unseeded and low-seeded reactions, data were normalized and fitted using GraphPad Prism 2.0 with2 y=ymin+ymax−ymin/1+t1/2/t^c where y is the normalized ThT fluorescence and c is a constant. […]

[8] = Aβ42 ThT aggregation assay
Method: It was incubated at different concentrations in the presence of 20 μM ThT quiescently at 37 °C in 96-well half-area non-binding plates (Corning 3881), with 100 μL per well and five replicate wells per concentration. An aluminum film coating minimized evaporation. The fluorescence emission of ThT at 480 nm upon excitation at 440 nm was monitored using a FLUOstar Omega plate-reader (BMG Labtech GmbH, Germany) using a cycle time of 300 s with 40 flashes per reading and 0.2 s settling time per cycle.

[9] = unseeded assays, N = 3, fragmentation dominated, no seed
[10] = unseeded assays, N = 3, secondary nucleation dominated, no seed
[11] = global data analysis, fragmentation dominated
[12] = global data analysis, secondary nucleation dominated
[13] = secondary nucleation dominated model

Substance: medin: 50-residue peptide cleaved from lactadherin, forms aortic medial amyloid; produced recombinantly in E. coli
- aggregation of 10 nM medin monomer ([1]; 10 nM monomer, over 16 h, ThT): no aggregation
- lowest concentration at which amyloid fibrils form spontaneously ([1]; physiological pH and temperature, quiescent solution): 25 nM
- Primary nucleation order nc, fit result ([1]; fragmentation dominated, no seed): ~ 1
- Primary nucleation order nc, fit result ([1]; secondary nucleation dominated, no seed): ~ 1
- primary nucleation reaction order nc ([1]; unseeded assay, secondary nucleation- or fragmentation-dominated spontaneous aggregation model): ~ 1
- Combined rate constant k+kn, average value [1, 9]: 7.3 M-1s-2
- Combined rate constant k+k−, average value [1, 9]: 1.7 M-1s-2
- Primary nucleation reaction order nc, average value [1, 9]: 1.4
- Combined rate constant k+k2, average value [1, 10]: 22.3 M-1s-2
- Primary nucleation reaction order nc, average value [1, 10]: ~ 1
- Secondary nucleation reaction order n2, average value [1, 10]: ~ 0
- Combined rate constant k+kn, average value ([1]; unseeded assays, biological replicates N = 3 (different batches), secondary nucleation dominated, no seed): 0.1 M-1s-2
- Mean t1/2 ([2]; [NaCl] 0 mM): 3.2 h
- Mean t1/2 ([2]; [NaCl] 40 mM): 2.4 h
- Mean t1/2 ([2]; [NaCl] 150 mM): 2.5 h
- Mean t1/2 ([2]; [NaCl] 500 mM): 2.4 h
- critical concentration of medin aggregation [3]: ~ 14 nM
- primary nucleation reaction order nc ([4]; global analysis of all assays): ~1
- primary nucleation rate constant kn ([4]; global analysis of unseeded, low-seeded and high-seeded data, saturated secondary nucleation (n2 = 0) or fragmentation model): 1e-08 s⁻¹
- Elongation rate constant k+, fit result [4, 11]: 9.53e+06 M⁻¹ s⁻¹
- Primary nucleation order nc, fit result [4, 11]: ~ 1
- Primary nucleation rate constant kn, fit result [4, 11]: 1.15e-08 s⁻¹
- Secondary pathway rate constant k−, fit result [4, 11]: 3.14e-07 s⁻¹
- Elongation rate constant k+, fit result [4, 12]: 9.46e+06 M⁻¹ s⁻¹
- Primary nucleation order nc, fit result [4, 12]: ~ 1
- Primary nucleation rate constant kn, fit result [4, 12]: 1.13e-08 s⁻¹
- Secondary nucleation order n2, fit result [4, 12]: ~ 0
- Secondary pathway rate constant k2, fit result [4, 12]: 3.23e-07 s⁻¹
- hydrodynamic diameter of aggregates ([5]; 10 µM medin after quiescent incubation at pH 7.4 and 37 °C, DLS): 200–3200 nm
- incubation time until first traces of higher molecular weight species ([5]; 10 µM medin monomer on ice, DLS): at least 1.5 hours
- hydrodynamic diameters of monomeric and initial oligomeric species ([5]; 10 µM medin, DLS at 20 °C, N = 3, n = 3): 0.4–6 nm
- mean hydrodynamic diameter ([5]; purely monomeric medin, 10 µM in aggregation assay buffer, freshly eluted): 0.67 nm
- elongation rate constant ([6]; as printed in the Introduction, physiological pH and temperature in vitro): ~ 10^7 s^−1
- Elongation rate constant k+, fit result ([6]; fragmentation dominated model): 5.4e+07 M⁻¹ s⁻¹
- Elongation rate constant k+, fit result [6, 13]: 5.34e+07 M⁻¹ s⁻¹
- elongation rate constant k+ ([6]; high-seeded: 187.5–500 nM monomer + 187.5 nM pre-formed fibrils (20–50% seed:total protein), pH 7.4, 37 °C, quiescent, 20 µM ThT, AmyloFit fit of first phase): 5e+07 M⁻¹ s⁻¹
- rate constant of the monomer-independent secondary pathway (k2 or k−) ([7]; 50–[…] monomer, pH 7.4, 37 °C, 20 µM ThT): 4e-08 s⁻¹
- secondary nucleation reaction order n2 [7, 13]: ~ 0

Substance: Aβ42: human amyloid-β 42 peptide, recombinantly produced, comparator amyloid
- concentrations at which no aggregation was observed within 24 hours ([8]; 20 mM NaPi 0.2 mM EDTA pH 7.4, 37 °C, quiescent, 20 µM ThT): below 117 nM
- aggregation half-time t1/2 ([8]; […] Aβ42, pH 7.4, 37 °C): 1.9 h
